Key:
H+/K+-ATPase = molecular target: T1, H+/K+-ATPase (Sus scrofa, UniProt P19156); test: Inhibition of proton pump (H+/K+-ATPase) activity in hog gastric vesicles; type: biochemical; settings: K+ specific H+/K+-ATPase activity, pH 7.4, 37° C. for 40 minutes, malachite green
T1 construct: reaction buffer solution (60 mmol/l Tris-HCl buffer solution, pH 7.4) containing hog gastric vesicle; from tissue; host or cells: hog stomach (gastric vesicles, by centrifugation after Rabon et al. 1988)
In short: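 Hog gastric vesicles in 60 mmol/l Tris-HCl pH 7.4 with compound, started with ATP, 40 min at 37° C. Pi read by malachite green at 570 nm; K+-specific activity taken as difference between +K+ and −K+ activity. IC50 from % inhibition by 4-parameter logistic fit.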

[1] = tested on: basal gastric acid secretion in pylorus-ligated rat; test: Inhibition of basal gastric acid secretion in pylorus-ligated rat (Shay's rat model); type: in vivo; settings: total acid output, male SD rats, 3 mg/kg into the caudal vein, 5 hours after pylorus ligation
Method: 3) Effect of Inhibiting Basal Gastric Acid Secretion in Pylorus-Ligated Rat
The measurement of effect of inhibiting basal gastric acid secretion by the compound of the present invention was conducted according to shay's rat model (Shay, H., et al., 1945, gastroenterology, 5, p 43-61). Male Sprague Dawley (SD) rats (body weight 180-220 g) were divided into X groups (n=5), and fasted while feeding only water for 18 hours. Under isoflurane anesthesia, incision of abdominal cavity of rat was made to ligate pylorus, and, immediately after the ligation, to the control groups, only an aqueous solution of 10% ethanol, 20% polyethyleneglycol (PEG) 400 and 10% Cremophor was administered into the caudal vein, and to the other groups, a test compound suspended in an aqueous solution of 10% ethanol, 20% polyethyleneglycol 400, 10% Cremophor was administered into the caudal vein at a dose of 3 mg/kg/2 ml. […] The amount and the pH of the obtained gastric juice were measured, the acidity of gastric juice was measured with 0.1 N-NaOH volume (ueq/ml) required for automatic titration of gastric juice to pH 7.0, and total acid output was calculated by multiplying the acidity of gastric juice and the amount of gastric juice. % Inhibition activity of test compound=(total acid secretion of control group−total acid secretion of the group treated with test compound)/total acid secretion of control group×100

T1 sequence (P19156 2-1034 limits assumed): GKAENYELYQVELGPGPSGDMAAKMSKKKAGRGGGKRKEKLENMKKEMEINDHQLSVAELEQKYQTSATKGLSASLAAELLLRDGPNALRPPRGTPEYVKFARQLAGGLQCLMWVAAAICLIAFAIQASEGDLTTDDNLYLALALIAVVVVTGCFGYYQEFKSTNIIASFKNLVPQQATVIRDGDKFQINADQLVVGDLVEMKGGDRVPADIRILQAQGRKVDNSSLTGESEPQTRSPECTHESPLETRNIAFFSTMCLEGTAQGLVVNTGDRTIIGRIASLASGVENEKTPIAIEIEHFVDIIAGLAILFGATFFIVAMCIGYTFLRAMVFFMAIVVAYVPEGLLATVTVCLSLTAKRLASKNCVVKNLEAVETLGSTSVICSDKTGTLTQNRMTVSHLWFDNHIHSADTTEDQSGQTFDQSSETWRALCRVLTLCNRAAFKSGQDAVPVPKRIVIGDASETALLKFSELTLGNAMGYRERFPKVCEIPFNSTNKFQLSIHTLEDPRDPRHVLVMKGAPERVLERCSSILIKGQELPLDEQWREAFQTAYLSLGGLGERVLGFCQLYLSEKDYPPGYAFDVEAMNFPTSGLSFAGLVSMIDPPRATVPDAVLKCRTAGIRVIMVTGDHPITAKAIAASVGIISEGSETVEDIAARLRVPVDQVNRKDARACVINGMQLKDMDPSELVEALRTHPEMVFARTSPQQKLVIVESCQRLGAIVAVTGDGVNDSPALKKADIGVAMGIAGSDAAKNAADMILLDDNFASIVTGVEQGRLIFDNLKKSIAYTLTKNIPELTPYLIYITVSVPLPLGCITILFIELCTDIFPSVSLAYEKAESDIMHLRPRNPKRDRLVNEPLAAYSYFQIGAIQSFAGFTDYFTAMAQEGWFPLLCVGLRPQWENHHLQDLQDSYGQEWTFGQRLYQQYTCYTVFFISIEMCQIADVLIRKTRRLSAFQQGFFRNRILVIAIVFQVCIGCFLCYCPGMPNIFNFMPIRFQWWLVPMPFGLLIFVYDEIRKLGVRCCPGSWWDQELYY
T1 sequence (P18434 whole entry partner): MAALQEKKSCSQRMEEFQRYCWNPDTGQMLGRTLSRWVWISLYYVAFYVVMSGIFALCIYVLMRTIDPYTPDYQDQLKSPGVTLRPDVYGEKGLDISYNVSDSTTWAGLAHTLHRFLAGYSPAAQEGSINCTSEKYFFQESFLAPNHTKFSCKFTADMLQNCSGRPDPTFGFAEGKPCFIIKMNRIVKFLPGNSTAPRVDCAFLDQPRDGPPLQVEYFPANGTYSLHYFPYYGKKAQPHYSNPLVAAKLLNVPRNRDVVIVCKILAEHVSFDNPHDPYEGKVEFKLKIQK

SMILES | IC50 (H+/K+-ATPase) [µM] | % inhibition activity [1] [%]
CNC1CCc2c1cn(S(=O)(=O)c1cccc(Cl)c1)c2-c1ccccc1F (stereo not drawn) [Example 1] | 0.34 | 92
CNC1CCc2c1cn(S(=O)(=O)c1cccc(F)c1)c2-c1ccc(F)cc1F (stereo not drawn) [Example 113, 1-(2,4-difluorophenyl)-2-((3-fluorophenyl)sulfonyl)-N-methyl-2,4,5,6-tetrahydrocyclopenta[c]pyrrol-4-amine] | 0.31 | 52
CNC1CCCc2c1cn(S(=O)(=O)c1cccnc1)c2-c1ccccc1F (stereo not drawn) [Example 131, 1-(2-fluorophenyl)-N-methyl-2-(pyridin-3-ylsulfonyl)-4,5,6,7-tetrahydro-2H-isoindole-4-amine] | 1.5 | 
CNC1CCCc2c1cn(S(=O)(=O)c1cccnc1)c2-c1ccccc1C (stereo not drawn) [Example 132, N-methyl-2-(pyridin-3-ylsulfonyl)-1-(o-tolyl)-4,5,6,7-tetrahydro-2H-isoindole-4-amine] | 8 | 
CNC1CCCc2c1cn(S(=O)(=O)c1cccnc1)c2-c1ccccc1Cl (stereo not drawn) [Example 133, 1-(2-chlorophenyl)-N-methyl-2-(pyridin-3-ylsulfonyl)-4,5,6,7-tetrahydro-2H-isoindole-4-amine] | 2 | 
CNC1CCCc2c1cn(S(=O)(=O)c1cccnc1)c2-c1ccc(-c2ccccc2)cc1 (stereo not drawn) [Example 134, 1-([1,1′-biphenyl]-4-yl)-N-methyl-2-(pyridin-3-ylsulfonyl)-4,5,6,7-tetrahydro-2H-isoindole-4-amine] | 19.7 | 
CNC1CCCc2c1cn(S(=O)(=O)c1cccnc1)c2-c1ccc(F)cc1F (stereo not drawn) [Example 135, 1-(2,4-difluorophenyl)-N-methyl-2-(pyridin-3-ylsulfonyl)-4,5,6,7-tetrahydro-2H-isoindole-4-amine] | 5 | 
CN(C)C1CCCc2c1cn(S(=O)(=O)c1cccc(F)c1)c2-c1ccccc1F (stereo not drawn) [Example 136, 1-(2-fluorophenyl)-2-((3-fluorophenyl)sulfonyl)-N,N-dimethyl-4,5,6,7-tetrahydro-2H-isoindole-4-amine] | 15 | 
Cc1cccc(S(=O)(=O)n2cc3c(c2-c2ccccc2F)CCCC3N(C)C)c1 (stereo not drawn) [Example 137, 1-(2-fluorophenyl)-N,N-dimethyl-2-(m-tolylsulfonyl)-4,5,6,7-tetrahydro-2H-isoindole-4-amine] | 6 | 
CN(C)C1CCCc2c1cn(S(=O)(=O)c1cccc(Cl)c1)c2-c1ccccc1F (stereo not drawn) [Example 138, 2-((3-chlorophenyl)sulfonyl)-1-(2-fluorophenyl)-N,N-dimethyl-4,5,6,7-tetrahydro-2H-isoindole-4-amine] | 7.1 | 
CN(C)C1CCCc2c1cn(S(=O)(=O)c1cccc(C(F)(F)F)c1)c2-c1ccccc1F (stereo not drawn) [Example 139, 1-(2-fluorophenyl)-N,N-dimethyl-2-((3-(trifluoromethyl)phenyl)sulfonyl)-4,5,6,7-tetrahydro-2H-isoindole-4-amine] | 9.07 | 
COc1cccc(S(=O)(=O)n2cc3c(c2-c2ccccc2F)CCCC3N(C)C)c1 (stereo not drawn) [Example 140, 1-(2-fluorophenyl)-2-((3-methoxyphenyl)sulfonyl)-N,N-dimethyl-4,5,6,7-tetrahydro-2H-isoindole-4-amine] | 7 | 
CN(C)C1CCCc2c1cn(S(=O)(=O)c1cccc(OC(F)(F)F)c1)c2-c1ccccc1F (stereo not drawn) [Example 141, 1-(2-fluorophenyl)-N,N-dimethyl-2-((3-(trifluoromethoxy)phenyl)sulfonyl)-4,5,6,7-tetrahydro-2H-isoindole-4-amine] | 10.6 | 
CN(C)C1CCCc2c1cn(S(=O)(=O)c1cccc(OC(F)F)c1)c2-c1ccccc1F (stereo not drawn) [Example 142, 2-((3-(difluoromethoxy)phenyl)sulfonyl)-1-(2-fluorophenyl)-N,N-dimethyl-4,5,6,7-tetrahydro-2H-isoindole-4-amine] | 8 | 
CN(C)c1cccc(S(=O)(=O)n2cc3c(c2-c2ccccc2F)CCCC3N(C)C)c1 (stereo not drawn) [Example 143, 2-((3-(dimethylamino)phenyl)sulfonyl)-1-(2-fluorophenyl)-N,N-dimethyl-4,5,6,7-tetrahydro-2H-isoindole-4-amine] | 5 | 
CN(C)C1CCCc2c1cn(S(=O)(=O)c1cccnc1)c2-c1ccccc1F (stereo not drawn) [Example 144, 1-(2-fluorophenyl)-N,N-dimethyl-2-(pyridin-3-ylsulfonyl)-4,5,6,7-tetrahydro-2H-isoindole-4-amine] | 8 | 
CNC1CCCCc2c1cn(S(=O)(=O)c1cccc(Cl)c1)c2-c1ccccc1F (stereo not drawn) [Example 145, 2-((3-chlorophenyl)sulfonyl)-1-(2-fluorophenyl)-N-methyl-2,4,5,6,7,8-hexahydrocyclohepta[c]pyrrol-4-amine] | 2.2 | 
CNC1CCCCc2c1cn(S(=O)(=O)c1cccnc1)c2-c1ccccc1F (stereo not drawn) [Example 146, 1-(2-fluorophenyl)-N-methyl-2-(pyridin-3-ylsulfonyl)-2,4,5,6,7,8-hexahydrocyclohepta[c]pyrrol-4-amine] | 4.5 | 
CCNC1CCCCc2c1cn(S(=O)(=O)c1cccc(Cl)c1)c2-c1ccccc1F (stereo not drawn) [Example 147, 2-((3-chlorophenyl)sulfonyl)-N-ethyl-1-(2-fluorophenyl)-2,4,5,6,7,8-hexahydrocyclohepta[c]pyrrol-4-amine] | 7.04 | 
